Reference: patent publication EP0435693B1, “Pharmaceutical compositions containing 3-oxygermylpropionic acid polymers for inhibiting the degeneration of cells” (SANWA KAGAKU KENKYUSHO CO., LTD., priority 1989, dated 1991)

Legend:
mice = test: Acute toxicity test, per os, mice; assay type: in vivo
From the text: (§1) With (a) the 3-oxygermylpropionic acid according to this invention (hereinafter called SK-818) and (b) the composition of Preparation Ex. 1, SD rats and mice were subjected to acute and subacute (chronic) toxicity tests in conventional manner. (Groups of animals, 8-10 per group, were used for experimentation).

SD masculine rats = test: Subacute toxicity, oral, three months; assay type: in vivo
Procedure: as §1
(a) SK-818 and (b) the composition of Preparation Ex. 1 were administered orally to SD masculine rats at doses of 256, 380, 640, 1300, 1600 and 4000 mg/kg/day over three months to determine the doses at which there was no toxic influence on the animals and the animals were absolutely poisoned, respectively.

ddy masculine mouse = test: Amnesia induced by carbon dioxide, passive avoidance in bright/dark box; assay type: in vivo; conditions: Group B: SK-818 + Foot Shocks + CO₂ Gas, 10.0 mg/kg/day orally from 3 days before
Procedure: A ddy masculine mouse was encaged in a […] of a testing box (comprising bright and dark chambers, each measuring 15.0 x 17.5 x 18.5 cm and provided with an inlet/outlet combination of 6.0 x 6.0 cm, and the time which it took the animal to walk into the dark chamber (the reaction potential time during acquisition, hereinafter referred to as A.T.) was then measured. From just after the animal walked into the dark chamber, foot shocks of 2.5 mA were continuously applied to the animal through a floor grid with a shock generator scrambler, made by Astech Co., Ltd., until the animal walked into the bright chamber. Immediately after the acquisition trial, the animal was encaged in a desiccator, and 15 l/min of CO₂ gas were injected into the desiccator for 40 to 45 seconds for suffocation. After the animal was removed from the desiccator, artificial aspiration was immediately tried thereon. The animal was then put back in a home cage.
After 24 hours of the acquisition trial, the animal was again encaged in the bright chamber of the testing box to measure the time which it took the animal to walk into the dark chamber (or the reaction potential time during the retention trial, hereinafter referred to as R.T.). SK-818, in the form of a mixture with feed, had been administered orally to the animal from 3 days before at a dose of 10.0 mg/kg/day.

SD rats and mice = test: Acute toxicity test, general symptoms; assay type: in vivo
From the text: as §1
Between (a) SK-818 and (b) the composition of Preparation Ex. 1 there was no significant difference in acute toxicity.

rat's hepatocytes = test: Inhibition of GPT elution from cultivated liver cells treated with hepatocyte-damaging substances; assay type: cell-based
From the text: The effect on relieving the culture damage induced by adding hepatocyte-damaging substances and SK-818 to hepatocyte culture systems was examined by measuring the activity of glutamic-pyruvic transaminase (GPT) eluates obtained by cellular disorders. How much the elution of GPT was inhibited was used as an index to the hepatoxicity-relieving effect.
The following four substances were used as the hepatocyte-damaging (hepatoxic) substances. • (a) Galactosamine - "J. Natur. Prod.", 46, 841, 1983. • (b) Calcium ionophore - "Pharmacognosy", 39, 218, 1985. • (c) Cumene hydroperoxide - "Planta Med.", 51, 50, 1985. • (d) 1-Naphthylisothiocyanate.
The extraction and culture of a single layer of rat's hepatocytes were carried out by the procedures described by Nakamura et al in "Protein, Nucleic Acid and Oxygen", Extra Number No. 24, pp. 55-74, 1981.
Single layers of rats' hepatocytes were cultured for certain periods of time:- 0 hour for a galactosamine group, 20.5 hours for calcium ionophore and cumene hydroperoxide groups, and 14.5 hours for a 1-naph isocyanate group. Afterwards, the hepatocyte-damaging substances were added to the culture media at the respective desired concentrations:- 0.35 mM for (a); 10 »m for (b), 0.5 mM for (c) and 188 »m for (d)), which were then cultured for the respective given periods of time:- 38 hours for the group (a), 1 hour for (b), 1 hour for (c) and 12 hours for (d).
SK-818 was dissolved in bovine embryo serum, and the serum solution was then added to each medium at the respective stages of culture by the following three methods; • (a) it was added to the pre-culture medium prior to the addition of the hepatocyte-damaging substance (called the pre-addition); • (b) it was added to the culture medium simultaneously with the addition of the hepatocyte-damaging substance (called the simultaneous addition); and • (c) it was added to the pre-culture and culture media (called the total addition).
The activity of the GPT eluates produced by cytotoxicity in the media was measured by a GPT measuring kit. Then, GPT reductions in % were found by the following equation: [formula] wherein A is the activity in Karmen units of GPT in a culture medium to which no hepatocyte-damaging substance is added, B is the activity in Karmen units of GPT in a culture medium to which the hepatocyte-damaging substance is added; and C is the activity in Karmen units of GPT in a culture medium to which the hepatocyte-damaging substance is added together with 3-oxygermylpropionic acid.

[1] = orally, daily over three months

3-oxygermylpropionic acid [SK-818]
LD50 (mice; female): 5,800 or more mg/kg | LD50 (mice; male): 5,600 or more mg/kg | mortality (SD masculine rats; At 4000 mg/kg, orally over three months): some animals died | dose at which the animals were absolutely poisoned (SD masculine rats; [1]): 1600 mg/kg | dose which had no toxic influence on the animals (SD masculine rats; [1]): 256 mg/kg | A.T. (reaction potential time during acquisition) (ddy masculine mouse): 48.5 ± 9.1 s | R.T. (reaction potential time during the retention trial) (ddy masculine mouse; 24 hours after acquisition): 276.5 ± 19.3 s | general symptoms (SD rats and mice): general symptoms of tranquilization, diarrhoea, vomiting and typhlectasis | GPT reductions (rat's hepatocytes; 1-naphthylisothiocynate 188 »m, simultaneous addition): 79% | GPT reductions (rat's hepatocytes; 1-naphthylisothiocynate 188 »m, total addition): 67% | GPT reductions (rat's hepatocytes; calcium ionophore 10 »m, simultaneous addition): 27% | GPT reductions (rat's hepatocytes; calcium ionophore 10 »m, total addition): 36% | GPT reductions (rat's hepatocytes; cumene hydroperoxide 0.5 mM, simultaneous addition): 63% | GPT reductions (rat's hepatocytes; cumene hydroperoxide 0.5 mM, total addition): 42% | GPT reductions (rat's hepatocytes; galactosamine 0.35 mM, simultaneous addition): 29% | GPT reduction (rat's hepatocytes; only pre-addition, before the hepatocyte-damaging substance): No GPT reduction
